How the values were obtained:
rat plasma proteins = test: Plasma protein binding by equilibrium dialysis (rat); type: in vitro ADME, Sprague–Dawley rat; conditions: rat plasma, equilibrium dialysis, n = 3
Method: (§1) The phosphate buffer (100 mM) and sodium hydroxide solution (1.0 M) were prepared in deionized water. […] PPB was determined by equilibrium dialysis method. An aliquot (150 μL) of NHPPC spiked plasma and phosphate buffer (pH 7.4) was added into the donor side and the receiver side of each designated well. The plate was covered with adhesive sealing film to prevent evaporation and placed in a water-bath shaker kept at 37°C for 6 h with a rate of 50 rpm. […] At the end of 6 h, aliquots were taken from each side of each well (n = 3) and kept in a −20°C freezer prior to analysis. The stability, device recovery and PPB were calculated using the following equations: Remaining at 6 h (%)=C6h/C0h×100%, Device recovery (%)=CDonor+CReceiver/C6h×100%, PPB (%)=CDonor−CReceiver/CDonor×100%.

dog plasma proteins = test: Plasma protein binding by equilibrium dialysis (dog); type: in vitro ADME, Beagle dog; conditions: dog plasma, equilibrium dialysis, n = 3
Method: as §1

human plasma proteins = test: Plasma protein binding by equilibrium dialysis (human); type: in vitro ADME; conditions: human plasma, equilibrium dialysis, n = 3
Method: as §1

With `CC(=O)CC(c1ccccc1)c1c(O)c2ccccc2oc1=O` (stereo not drawn) [Warf, reference compound] the “Mean device recovery %” value (rat plasma proteins) was 107.9 ± 0.03%, the “Mean device recovery %” value (dog plasma proteins) was 100.7 ± 0.49% and the “Mean device recovery %” value (human plasma proteins) was 107.0 ± 0.25%.

Source: PMC6567057, “Pharmacokinetic, metabolic stability, plasma protein binding and CYP450s inhibition/induction assessment studies of N-(2-pyridylmethyl)-2-hydroxiymethyl-1-pyrrolidinyl-4-(3-chloro-4-methoxy-benzylamino)-5-pyrimidine-carboxamide as potential type 5 phosphodiesterase inhibitors” (Animal Cells and Systems, 2019)
